According to the supplement of paper PMC10307832:

Columns and labels:
Experiment in all cases: relative viability (nuclei count vs DMSO), 5 days (fraction); higher = more cells survive
Imatinib + Alpelisib = compound: Cc1ccc(NC(=O)c2ccc(CN3CCN(C)CC3)cc2)cc1Nc1nccc(-c2cccnc2)n1 [Imatinib] + Cc1nc(NC(=O)N2CCC[C@H]2C(N)=O)sc1-c1ccnc(C(C)(C)C(F)(F)F)c1 [Alpelisib] (partner 2 µM)
Summary of the method: (§1)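 Relative viability is defined as nuclei in treated wells over nuclei in vehicle wells. Duplicate plates were run and medians reported. Lung cancer cell lines in 1536-well plates were dosed by pin tool one day after seeding, with one drug or with a fixed anchor-drug dose plus five library-drug doses (not always all listed) in √10 steps, and nuclei were counted after 5 days.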

Imatinib + Dasatinib = compound: Cc1ccc(NC(=O)c2ccc(CN3CCN(C)CC3)cc2)cc1Nc1nccc(-c2cccnc2)n1 [Imatinib] + Cc1nc(Nc2ncc(C(=O)Nc3c(C)cccc3Cl)s2)cc(N2CCN(CCO)CC2)n1 [Dasatinib] (partner 0.075 µM)
Summary of the method: as §1

Imatinib + Decitabine = compound: Cc1ccc(NC(=O)c2ccc(CN3CCN(C)CC3)cc2)cc1Nc1nccc(-c2cccnc2)n1 [Imatinib] + Nc1ncn([C@H]2C[C@H](O)[C@@H](CO)O2)c(=O)n1 [Decitabine] (partner 2 µM)
Summary of the method: as §1

Imatinib + Olaparib = compound: Cc1ccc(NC(=O)c2ccc(CN3CCN(C)CC3)cc2)cc1Nc1nccc(-c2cccnc2)n1 [Imatinib] + O=C(c1cc(Cc2n[nH]c(=O)c3ccccc23)ccc1F)N1CCN(C(=O)C2CC2)CC1 [Olaparib] (partner 8 µM)
Summary of the method: as §1

Row | Cell Line | relative viability (Imatinib + Alpelisib; first compound 0.02 µM) | relative viability (Imatinib + Alpelisib; first compound 0.06325 µM) | relative viability (Imatinib + Alpelisib; first compound 0.2 µM) | relative viability (Imatinib + Alpelisib; first compound 0.6325 µM) | relative viability (Imatinib + Alpelisib; first compound 2 µM) | relative viability (Imatinib + Dasatinib; first compound 0.02 µM) | relative viability (Imatinib + Dasatinib; first compound 0.06325 µM) | relative viability (Imatinib + Dasatinib; first compound 0.2 µM) | relative viability (Imatinib + Dasatinib; first compound 0.6325 µM) | relative viability (Imatinib + Dasatinib; first compound 2 µM) | relative viability (Imatinib + Decitabine; first compound 0.02 µM) | relative viability (Imatinib + Decitabine; first compound 0.2 µM) | relative viability (Imatinib + Decitabine; first compound 0.6325 µM) | relative viability (Imatinib + Decitabine; first compound 2 µM) | relative viability (Imatinib + Olaparib; first compound 0.02 µM) | relative viability (Imatinib + Olaparib; first compound 0.2 µM) | relative viability (Imatinib + Olaparib; first compound 2 µM) | relative viability (Imatinib + Decitabine; first compound 0.06325 µM) | relative viability (Imatinib + Olaparib; first compound 0.06325 µM) | relative viability (Imatinib + Olaparib; first compound 0.6325 µM)
1 | LXF-289 | 1.16 | 1.06 | 1.15 | 0.967 | 1.02 | 0.216 | 0.259 | 0.217 | 0.19 | 0.195 | 0.387 | 0.407 | 0.391 | 0.405 | 1.1 | 1.35 | 1.13 |  |  | 
2 | HCC-366 | 0.543 |  | 0.431 | 0.362 | 0.35 | 0.805 |  | 0.822 | 0.648 | 0.584 | 0.324 | 0.356 | 0.374 | 0.329 | 0.427 | 0.389 | 0.346 | 0.366 | 0.336 | 0.335
3 | IA-LM | 0.838 | 1.1 | 0.928 | 0.967 | 0.702 |  |  |  |  |  |  |  |  |  | 0.917 | 0.996 | 0.734 |  | 0.884 | 0.977
4 | NCI-H1755 | 1.09 | 1.04 | 1.13 | 0.949 | 0.981 | 0.415 | 0.392 | 0.41 | 0.422 | 0.408 | 0.689 | 0.702 | 0.708 | 0.69 | 0.946 | 0.968 | 0.85 | 0.693 | 0.848 | 0.881
5 | NCI-H460 | 0.632 | 0.818 | 0.667 | 0.532 | 0.465 | 0.678 | 0.675 | 0.649 | 0.456 | 0.493 | 0.603 | 0.63 | 0.511 | 0.575 | 0.515 | 0.402 | 0.396 | 0.333 | 0.431 | 0.462
6 | SW 1573 | 0.826 | 0.785 | 1.13 | 0.842 | 0.927 | 0.525 | 0.314 | 0.604 | 0.517 | 0.531 | 0.646 | 0.575 | 0.471 | 0.437 | 0.62 | 0.425 | 0.559 | 0.4 | 0.704 | 0.485
7 | NCI-H2228 | 0.814 | 0.782 | 0.724 | 0.626 | 0.807 | 0.621 |  | 0.464 | 0.424 | 0.55 |  |  |  |  | 0.597 | 0.684 | 0.542 |  | 1.13 | 0.681
8 | 201T | 1.03 |  | 1.07 | 1.02 | 0.993 | 0.594 |  | 0.625 | 0.61 | 0.496 | 0.855 | 0.841 | 0.852 | 0.843 | 0.879 | 0.845 | 0.836 | 0.8 | 0.873 | 0.814
9 | ABC-1 | 1.1 |  | 1.35 | 1.13 | 0.888 | 0.624 |  | 0.689 | 0.522 | 0.523 | 1.22 | 0.909 | 1.15 | 1.06 | 1 | 0.732 | 0.581 |  |  | 0.785
10 | NCI-H2023 | 0.633 | 0.728 | 0.653 | 0.577 | 0.586 | 0.751 | 0.33 | 0.565 | 0.591 | 0.509 | 0.228 | 0.24 | 0.22 | 0.223 | 0.552 | 0.45 | 0.408 | 0.252 | 0.472 | 0.62
11 | NCI-H2126 |  |  |  |  |  | 0.705 |  | 0.537 | 0.457 | 0.517 | 0.545 | 0.634 | 0.58 | 0.538 | 0.892 | 0.92 | 0.924 | 0.522 | 0.742 | 0.985
12 | COR-L 105 | 1.29 | 1.35 | 1.18 | 0.882 | 1.01 | 0.324 | 0.335 | 0.277 | 0.308 | 0.287 | 0.709 | 0.675 | 0.563 | 0.655 | 0.873 | 0.678 | 0.665 | 0.694 | 0.663 | 0.724
13 | UMC-11 | 0.982 | 1.18 | 0.957 | 1.03 | 1.03 | 0.527 | 0.34 | 0.619 | 0.507 | 0.457 | 0.554 | 0.59 | 0.619 | 0.683 | 0.352 | 0.366 | 0.301 | 0.615 | 0.514 | 0.41
14 | NCI-H2342 |  |  |  |  |  | 0.289 | 0.326 | 0.321 | 0.321 | 0.316 | 0.745 | 0.779 | 0.679 | 0.71 | 0.44 | 0.466 | 0.426 | 0.713 | 0.404 | 0.473
15 | SK-LU-1 | 1.07 | 1.37 | 1.19 | 0.962 |  | 0.16 | 0.212 | 0.162 | 0.181 | 0.186 | 0.686 | 0.588 | 0.598 | 0.645 | 0.379 | 0.462 |  | 0.543 | 0.457 | 
16 | NCI-H1650 |  |  |  |  |  | 0.371 | 0.262 | 0.326 | 0.285 | 0.261 | 0.476 | 0.42 | 0.371 | 0.425 | 1 | 0.944 | 0.84 | 0.367 | 0.938 | 0.859
17 | NCI-H2085 | 1 | 0.937 | 1.05 | 1.01 | 0.876 |  | 0.18 | 0.248 | 0.208 | 0.228 | 0.529 | 0.513 | 0.61 | 0.527 | 0.765 | 0.825 | 0.742 | 0.556 | 0.759 | 0.784
18 | NCI-H1793 | 0.721 |  | 0.801 | 0.73 | 0.674 | 0.421 |  | 0.388 | 0.368 | 0.388 | 0.477 | 0.522 | 0.447 | 0.445 | 0.92 | 1.22 | 0.88 |  |  | 0.782
19 | RERF-LC-KJ | 0.841 | 0.723 | 0.8 |  | 0.8 | 0.927 | 0.602 | 0.987 | 0.771 | 0.841 | 0.755 | 0.655 |  | 0.754 | 1.03 | 1.1 | 0.898 | 0.558 | 0.933 | 
